Data taken from the NIST ThermoML archive (doi:10.1021/acs.jced.6b00536).
Values joined by “and” are separate entries in the source; they are usually repeats but may differ in a detail not shown here. Equal values may be shown once. Numbers after ± are expanded uncertainties.

Details: Gas, Frequency=0.05 MHz, Single path-length method

FC(F)(F)C(F)(F)F [hexafluoroethane]
Details | speed of sound
250.8 K, 68.9 kPa | 127.66 ± 0.09 m/s
250.8 K, 77.3 kPa | 127.49 ± 0.09 m/s
250.8 K, 95 kPa | 127.13 ± 0.09 m/s
250.8 K, 108.8 kPa | 126.85 ± 0.1 m/s
250.8 K, 128.5 kPa | 126.44 ± 0.1 m/s
250.8 K, 149.2 kPa | 126.04 ± 0.1 m/s
250.8 K, 169.4 kPa | 125.61 ± 0.1 m/s
250.8 K, 177.2 kPa | 125.45 ± 0.1 m/s
250.8 K, 195.4 kPa | 125.08 ± 0.1 m/s
250.8 K, 211.5 kPa | 124.74 ± 0.1 m/s
250.8 K, 225.5 kPa | 124.44 ± 0.1 m/s
256.2 K, 70.4 kPa | 128.95 ± 0.09 m/s
256.2 K, 78.9 kPa | 128.78 ± 0.09 m/s
256.2 K, 97 kPa | 128.43 ± 0.09 m/s
256.2 K, 111.1 kPa | 128.17 ± 0.09 m/s
256.2 K, 131.3 kPa | 127.77 ± 0.1 m/s
256.2 K, 152.5 kPa | 127.38 ± 0.1 m/s
256.2 K, 173.1 kPa | 126.97 ± 0.1 m/s
256.2 K, 181.1 kPa | 126.82 ± 0.1 m/s
256.2 K, 199.7 kPa | 126.45 ± 0.1 m/s
256.2 K, 216.2 kPa | 126.14 ± 0.1 m/s
256.2 K, 230.6 kPa | 125.83 ± 0.1 m/s
261.5 K, 71.8 kPa | 130.24 ± 0.09 m/s
261.5 K, 80.5 kPa | 130.09 ± 0.09 m/s
261.5 K, 99 kPa | 129.73 ± 0.09 m/s
261.5 K, 113.4 kPa | 129.49 ± 0.09 m/s
261.5 K, 134.1 kPa | 129.1 ± 0.09 m/s
261.5 K, 155.7 kPa | 128.71 ± 0.09 m/s
261.5 K, 176.8 kPa | 128.32 ± 0.1 m/s
261.5 K, 185 kPa | 128.19 ± 0.1 m/s
261.5 K, 204 kPa | 127.83 ± 0.1 m/s
261.5 K, 221 kPa | 127.51 ± 0.1 m/s
261.5 K, 235.7 kPa | 127.24 ± 0.1 m/s
266.8 K, 73.3 kPa | 131.5 ± 0.09 m/s
266.8 K, 82.1 kPa | 131.33 ± 0.09 m/s
266.8 K, 101.1 kPa | 131.02 ± 0.09 m/s
266.8 K, 115.7 kPa | 130.77 ± 0.09 m/s
266.8 K, 136.8 kPa | 130.41 ± 0.09 m/s
266.8 K, 158.9 kPa | 130.04 ± 0.09 m/s
266.8 K, 180.5 kPa | 129.65 ± 0.09 m/s
266.8 K, 188.9 kPa | 129.52 ± 0.09 m/s
266.8 K, 208.3 kPa | 129.18 ± 0.1 m/s
266.8 K, 225.6 kPa | 128.87 ± 0.1 m/s
266.8 K, 240.8 kPa | 128.62 ± 0.1 m/s
272.1 K, 74.7 kPa | 132.77 ± 0.09 m/s
272.1 K, 83.7 kPa | 132.62 ± 0.09 m/s
272.1 K, 103.1 kPa | 132.3 ± 0.09 m/s
272.1 K, 118 kPa | 132.05 ± 0.09 m/s
272.1 K, 139.6 kPa | 131.72 ± 0.09 m/s
272.1 K, 162.1 kPa | 131.35 ± 0.09 m/s
272.1 K, 184.3 kPa | 131.01 ± 0.09 m/s
272.1 K, 192.8 kPa | 130.85 ± 0.09 m/s
272.1 K, 212.6 kPa | 130.53 ± 0.09 m/s
272.1 K, 230.5 kPa | 130.23 ± 0.1 m/s
272.1 K, 246.8 kPa | 129.96 ± 0.1 m/s
277.4 K, 76.2 kPa | 134.03 ± 0.09 m/s
277.4 K, 85.4 kPa | 133.89 ± 0.09 m/s
277.4 K, 105.1 kPa | 133.57 ± 0.09 m/s
277.4 K, 120.4 kPa | 133.33 ± 0.09 m/s
277.4 K, 142.3 kPa | 132.99 ± 0.09 m/s
277.4 K, 165.4 kPa | 132.66 ± 0.09 m/s
277.4 K, 188 kPa | 132.3 ± 0.09 m/s
277.4 K, 196.7 kPa | 132.17 ± 0.09 m/s
277.4 K, 216.9 kPa | 131.84 ± 0.09 m/s
277.4 K, 235.2 kPa | 131.58 ± 0.09 m/s
277.4 K, 251.8 kPa | 131.3 ± 0.1 m/s
282.7 K, 77.6 kPa | 135.27 ± 0.09 m/s
282.7 K, 87 kPa | 135.13 ± 0.09 m/s
282.7 K, 107.1 kPa | 134.83 ± 0.09 m/s
282.7 K, 122.7 kPa | 134.61 ± 0.09 m/s
282.7 K, 145.1 kPa | 134.28 ± 0.09 m/s
282.7 K, 168.6 kPa | 133.93 ± 0.09 m/s
282.7 K, 191.6 kPa | 133.6 ± 0.09 m/s
282.7 K, 200.5 kPa | 133.47 ± 0.09 m/s
282.7 K, 221.3 kPa | 133.16 ± 0.09 m/s
282.7 K, 239.9 kPa | 132.89 ± 0.09 m/s
282.7 K, 256.9 kPa | 132.64 ± 0.1 m/s
287.9 K, 79.1 kPa | 136.49 ± 0.09 m/s
287.9 K, 88.6 kPa | 136.37 ± 0.09 m/s
287.9 K, 109.1 kPa | 136.08 ± 0.09 m/s
287.9 K, 125 kPa | 135.85 ± 0.09 m/s
287.9 K, 147.9 kPa | 135.54 ± 0.09 m/s
287.9 K, 171.8 kPa | 135.21 ± 0.09 m/s
287.9 K, 195.4 kPa | 134.9 ± 0.09 m/s
287.9 K, 204.4 kPa | 134.76 ± 0.09 m/s
287.9 K, 225.6 kPa | 134.47 ± 0.09 m/s
287.9 K, 244.5 kPa | 134.2 ± 0.09 m/s
287.9 K, 262 kPa | 133.96 ± 0.09 m/s
293.2 K, 80.5 kPa | 137.71 ± 0.09 m/s
293.2 K, 85.4 kPa | 137.65 ± 0.09 m/s
293.2 K, 90.3 kPa | 137.61 ± 0.09 m/s
293.2 K, 111.1 kPa | 137.3 ± 0.09 m/s and 137.31 ± 0.09 m/s
293.2 K, 127.3 kPa | 137.08 ± 0.09 m/s and 137.09 ± 0.09 m/s
293.2 K, 150.6 kPa | 136.79 ± 0.09 m/s and 136.8 ± 0.09 m/s
293.2 K, 175 kPa | 136.48 ± 0.09 m/s
293.2 K, 175.1 kPa | 136.49 ± 0.09 m/s
293.2 K, 199 kPa | 136.16 ± 0.09 m/s
293.2 K, 203.7 kPa | 136.09 ± 0.09 m/s
293.2 K, 208.3 kPa | 136.06 ± 0.09 m/s
293.2 K, 229.9 kPa | 135.75 ± 0.09 m/s and 135.74 ± 0.09 m/s
293.2 K, 249.1 kPa | 135.49 ± 0.09 m/s
293.2 K, 249.2 kPa | 135.5 ± 0.09 m/s
293.2 K, 265.6 kPa | 135.26 ± 0.09 m/s
293.2 K, 267 kPa | 135.26 ± 0.09 m/s
298.5 K, 82 kPa | 138.94 ± 0.09 m/s
298.5 K, 91.9 kPa | 138.8 ± 0.09 m/s
298.5 K, 113.1 kPa | 138.55 ± 0.09 m/s
298.5 K, 129.7 kPa | 138.33 ± 0.09 m/s
298.5 K, 153.4 kPa | 138.03 ± 0.09 m/s
298.5 K, 178.3 kPa | 137.71 ± 0.09 m/s
298.5 K, 202.8 kPa | 137.42 ± 0.09 m/s
298.5 K, 212.2 kPa | 137.32 ± 0.09 m/s
298.5 K, 234.2 kPa | 137.02 ± 0.09 m/s
298.5 K, 253.9 kPa | 136.77 ± 0.09 m/s
298.5 K, 272 kPa | 136.54 ± 0.09 m/s
303.7 K, 83.4 kPa | 140.14 ± 0.09 m/s
303.7 K, 93.5 kPa | 140.03 ± 0.09 m/s
303.7 K, 115.2 kPa | 139.76 ± 0.09 m/s
303.7 K, 132 kPa | 139.56 ± 0.09 m/s
303.7 K, 156.2 kPa | 139.26 ± 0.09 m/s
303.7 K, 181.5 kPa | 138.98 ± 0.09 m/s
303.7 K, 206.4 kPa | 138.67 ± 0.09 m/s
303.7 K, 216.1 kPa | 138.57 ± 0.09 m/s
303.7 K, 238.5 kPa | 138.3 ± 0.09 m/s
303.7 K, 258.6 kPa | 138.06 ± 0.09 m/s
303.7 K, 277.2 kPa | 137.85 ± 0.09 m/s
308.9 K, 84.9 kPa | 141.33 ± 0.09 m/s
308.9 K, 95.1 kPa | 141.19 ± 0.09 m/s
308.9 K, 117.2 kPa | 140.94 ± 0.09 m/s
308.9 K, 134.2 kPa | 140.73 ± 0.09 m/s
308.9 K, 158.9 kPa | 140.47 ± 0.09 m/s
308.9 K, 184.7 kPa | 140.18 ± 0.09 m/s
308.9 K, 210.1 kPa | 139.9 ± 0.09 m/s
308.9 K, 219.9 kPa | 139.79 ± 0.09 m/s
308.9 K, 242.8 kPa | 139.54 ± 0.09 m/s
308.9 K, 263.3 kPa | 139.32 ± 0.09 m/s
308.9 K, 282.1 kPa | 139.06 ± 0.09 m/s
314.1 K, 86.3 kPa | 142.49 ± 0.09 m/s
314.1 K, 96.8 kPa | 142.38 ± 0.09 m/s
314.1 K, 119.2 kPa | 142.15 ± 0.09 m/s
314.1 K, 136.6 kPa | 141.94 ± 0.09 m/s
314.1 K, 161.6 kPa | 141.69 ± 0.09 m/s
314.1 K, 187.9 kPa | 141.4 ± 0.09 m/s
314.1 K, 213.8 kPa | 141.12 ± 0.09 m/s
314.1 K, 223.7 kPa | 140.99 ± 0.09 m/s
314.1 K, 247.1 kPa | 140.76 ± 0.09 m/s
314.1 K, 267.9 kPa | 140.53 ± 0.09 m/s
314.1 K, 287.2 kPa | 140.33 ± 0.09 m/s
319.3 K, 87.7 kPa | 143.67 ± 0.09 m/s
319.3 K, 98.4 kPa | 143.57 ± 0.09 m/s
319.3 K, 121.2 kPa | 143.32 ± 0.09 m/s
319.3 K, 138.9 kPa | 143.13 ± 0.09 m/s
319.3 K, 164.4 kPa | 142.88 ± 0.09 m/s
319.3 K, 191.2 kPa | 142.61 ± 0.09 m/s
319.3 K, 217.5 kPa | 142.34 ± 0.09 m/s
319.3 K, 227.6 kPa | 142.24 ± 0.09 m/s
319.3 K, 251.3 kPa | 141.97 ± 0.09 m/s
319.3 K, 272.7 kPa | 141.78 ± 0.09 m/s
319.3 K, 292.2 kPa | 141.56 ± 0.09 m/s
324.5 K, 89.2 kPa | 144.83 ± 0.09 m/s
324.5 K, 100 kPa | 144.71 ± 0.09 m/s
324.5 K, 123.2 kPa | 144.49 ± 0.09 m/s
324.5 K, 141.2 kPa | 144.31 ± 0.09 m/s
324.5 K, 167.2 kPa | 144.07 ± 0.09 m/s
324.5 K, 194.4 kPa | 143.8 ± 0.09 m/s
324.5 K, 221.2 kPa | 143.52 ± 0.09 m/s
324.5 K, 231.5 kPa | 143.44 ± 0.09 m/s
324.5 K, 255.7 kPa | 143.2 ± 0.09 m/s
324.5 K, 277.3 kPa | 142.99 ± 0.09 m/s
324.5 K, 297.1 kPa | 142.79 ± 0.09 m/s
